Counter-ions that a name gives are not always drawn. Like-named read-outs stand apart in the source and are kept apart here.
How the values were obtained:
Assay type in all cases: cell-based
E. coli #311 (MP) = experiment: MIC, agar dilution; settings: Escherichia coli, 18 h
S. aureus NEMC 8769 = experiment: MIC, agar dilution; settings: Staphylococcus aureus, NEMC8769, 18 h
[1] = tested on: S. hemolyticus AVHAH 88-3; experiment: MIC, agar dilution; settings: Streptococcus pyogenes, AVHAH883, 18 h
E. coli J3272 Tet C = experiment: microbe, parasite or virus in culture; settings: Escherichia coli, J3272TETC, 18 h
[2] = tested on: S. aureus UBMS 88-7 Tet K; experiment: microbe, parasite or virus in culture; settings: Staphylococcus aureus, UBMS887TETK, 18 h
[3] = tested on: E. coli MC 4100 TNIOC Tet B; experiment: microbe, parasite or virus in culture; settings: Escherichia coli, 18 h
[4] = tested on: E. coli MC 4100 Tet sens.; experiment: MIC, agar dilution; settings: Escherichia coli, 18 h
S. aureus SMITH (MP) = experiment: MIC, agar dilution; settings: Staphylococcus aureus, 18 h
E. coli UBMS 88-1 Tet B = experiment: microbe, parasite or virus in culture; settings: Escherichia coli, UBMS881TETB, 18 h
S. aureus UBMS 88-4 = experiment: MIC, agar dilution; settings: Staphylococcus aureus, UBMS884, 18 h
E. coli UBMS 90-4 Tet M = experiment: microbe, parasite or virus in culture; settings: Escherichia coli, UBMS904TETM, 18 h
S. aureus IVES 1983 = experiment: MIC, agar dilution; settings: Staphylococcus aureus, IVES1983, 18 h
E. coli UBMS 89-1 Tet M = experiment: microbe, parasite or virus in culture; settings: Escherichia coli, UBMS891TETM, 18 h
E. coli J3272 Tet D = experiment: microbe, parasite or virus in culture; settings: Escherichia coli, J3272TETD, 18 h
E. coli UBMS 90-5 = experiment: microbe, parasite or virus in culture; settings: Escherichia coli, UBMS905, 18 h
[5] = tested on: S. aureus UBMS 90-2 Tet M; experiment: microbe, parasite or virus in culture; settings: Staphylococcus aureus, UBMS902TETM, 18 h
[6] = tested on: S. aureus UBMS 90-1 Tet M; experiment: microbe, parasite or virus in culture; settings: Staphylococcus aureus, UBMS901TETM, 18 h
S. aureus ROSE (MP) = experiment: MIC, agar dilution; settings: Staphylococcus aureus, 18 h
E. coli BAJ9003 IMP MUT = experiment: microbe, parasite or virus in culture; settings: Escherichia coli, BAJ9003IMPMUT, 18 h
E. coli ATCC 25922 = experiment: MIC, agar dilution; settings: Escherichia coli, ATCC25922, 18 h
S. aureus IVES 2943 = experiment: MIC, agar dilution; settings: Staphylococcus aureus, IVES2943, 18 h
E. coli J2175 = experiment: MIC, agar dilution; settings: Escherichia coli, 18 h, read-out: MIC
S. marcescens FPOR 8733 = experiment: MIC, agar dilution; settings: Serratia marcescens, FPOR8733, 18 h
S. aureus ATCC 29213 = experiment: MIC, agar dilution; settings: Staphylococcus aureus, ATCC29213, 18 h, S. aureus ATCC 29213
Enterococcus 12201 = experiment: MIC, agar dilution; settings: Enterococcus, 12201, 18 h
E. coli PRP1 Tet A = experiment: microbe, parasite or virus in culture; settings: Escherichia coli, PRP1TETA, 18 h
[7] = tested on: S. aureus UBMS 88-5 Tet M; experiment: microbe, parasite or virus in culture; settings: Staphylococcus aureus, UBMS885TETM, 18 h
S. aureus UBMS 90-3 = experiment: MIC, agar dilution; settings: Staphylococcus aureus, UBMS903, 18 h
[8] = tested on: X. maltophilia NEMC 87210; experiment: MIC, agar dilution; settings: Stenotrophomonas maltophilia, NEMC87210, 18 h
[9] = tested on: Ps. aeruginosa ATCC 27853; experiment: MIC, agar dilution; settings: Pseudomonas aeruginosa, ATCC27853, 18 h, Ps. aeruginosa ATCC 27853; read-out: MIC
E. faecalis ATCC 29212 = experiment: MIC, agar dilution; settings: Enterococcus faecalis, ATCC29212, 18 h
[10] = tested on: E. coli UBMS 89-2 Tet sens.; experiment: MIC, agar dilution; settings: Escherichia coli, 18 h; E. coli UBMS 89-2 Tet sens.; read-out: MIC
[11] = E. coli #311 (MP), read-out: MIC
[12] = E. coli UBMS 90-5, read-out: MIC

CN(C)[C@@H]1C(O)=C(C(N)=O)C(=O)[C@@]2(O)C(O)=C3C(=O)c4c(ccc(NC(=O)CNCc5cccs5)c4O)CC3CC12 (stereo partly drawn) [L, [4S-(4-alpha,12aalpha)]-4-(Dimethylamino)-1,4,4a,5,5a,6,11,12a-octahydro-3,10,12,12a-tetrahydroxy-1,11-dioxo-9-[[[(2-thienylmethyl)amino]acetyl]amino]-2-naphthacenecarboxamide dihydrochloride]
MIC (E. coli #311 (MP); [11]): 16 µg/mL
MIC (S. aureus NEMC 8769): 8 µg/mL
MIC [1]: 8 µg/mL
MIC (E. coli J3272 Tet C): 32 µg/mL
MIC [2]: 16 µg/mL
MIC [3]: 32 µg/mL
MIC [4]: 8 µg/mL
MIC (S. aureus SMITH (MP); S. aureus SMITH (MP)): 4 µg/mL
MIC (E. coli UBMS 88-1 Tet B): 32 µg/mL
MIC (S. aureus UBMS 88-4): 8 µg/mL
MIC (E. coli UBMS 90-4 Tet M): 8 µg/mL
MIC (S. aureus IVES 1983): 16 µg/mL
MIC (E. coli UBMS 89-1 Tet M): 8 µg/mL
MIC (E. coli J3272 Tet D): 16 µg/mL
MIC (E. coli UBMS 90-5; [12]): 16 µg/mL
MIC [5]: 8 µg/mL
MIC [6]: 8 µg/mL
MIC (S. aureus ROSE (MP)): 32 µg/mL
MIC (E. coli BAJ9003 IMP MUT): 4 µg/mL
MIC (E. coli ATCC 25922): 8 µg/mL
MIC (S. aureus IVES 2943): 16 µg/mL
MIC (E. coli J2175): 16 µg/mL
MIC (S. marcescens FPOR 8733): > 32 µg/mL
MIC (S. aureus ATCC 29213): 8 µg/mL
MIC (Enterococcus 12201; Enterococcus 12201, read-out: MIC): 8 µg/mL
MIC (E. coli PRP1 Tet A): 16 µg/mL
MIC [7]: 8 µg/mL
MIC (S. aureus UBMS 90-3; S. aureus UBMS 90-3): 4 µg/mL
MIC [8]: > 32 µg/mL
MIC [9]: > 32 µg/mL

CNCC(=O)Nc1ccc2c(c1O)C(=O)C1=C(O)[C@]3(O)C(=O)C(C(N)=O)=C(O)[C@@H](N(C)C)C3CC1C2 (stereo partly drawn) [F, [4S-(4alpha,12aalpha)]-4-(Dimethylamino)-1,4,4a,5,5a,6,11,12a-octahydro-3,10,12,12a-tetrahydroxy-9-[[(methylamino)acetyl]amino]-1,11-dioxo-2-naphthacenecarboxamide dihydrochloride]
MIC (E. coli #311 (MP); [11]): 0.5 µg/mL
MIC (S. aureus NEMC 8769): 0.25 µg/mL
MIC [1]: 1 µg/mL
MIC (E. coli J3272 Tet C): 4 µg/mL
MIC [2]: 16 µg/mL
MIC (S. aureus SMITH (MP)): 0.5 µg/mL
MIC (E. coli UBMS 88-1 Tet B): 1 µg/mL
MIC (S. aureus UBMS 88-4): 0.5 µg/mL
MIC (E. coli UBMS 90-4 Tet M): 0.5 µg/mL
MIC (S. aureus IVES 1983; S. aureus IVES 1983, read-out: MIC): 16 µg/mL
MIC (E. coli UBMS 89-1 Tet M): 0.5 µg/mL
MIC (E. coli J3272 Tet D): 0.5 µg/mL
MIC (E. coli UBMS 90-5; [12]): 0.5 µg/mL
MIC [5]: 0.5 µg/mL
MIC [6]: 0.5 µg/mL
MIC (S. aureus ROSE (MP)): > 32 µg/mL
MIC (E. coli BAJ9003 IMP MUT): 0.5 µg/mL
MIC (E. coli ATCC 25922; read-out: MIC): 0.5 µg/mL
MIC (S. aureus IVES 2943): > 32 µg/mL
MIC (E. coli J2175): 0.5 µg/mL
MIC (S. marcescens FPOR 8733): 4 µg/mL
MIC (E. faecalis ATCC 29212): 0.5 µg/mL
MIC (S. aureus ATCC 29213): 0.5 µg/mL
MIC (Enterococcus 12201): 0.5 µg/mL
MIC (E. coli PRP1 Tet A): 4 µg/mL
MIC [7]: 1 µg/mL
MIC (S. aureus UBMS 90-3): 0.5 µg/mL
MIC [8]: 16 µg/mL
MIC [9]: 32 µg/mL
MIC [10]: 1 µg/mL

CCCCCNCC(=O)Nc1ccc2c(c1O)C(=O)C1=C(O)[C@]3(O)C(=O)C(C(N)=O)=C(O)[C@@H](N(C)C)C3CC1C2 (stereo partly drawn) [K, [4S-(4alpha,12aalpha)]-4-(Dimethylamino)-1,4,4a,5,5a,6,11,12a-octahydro-3,10,12,12a-tetrahydroxy-1,11-dioxo-9-[[(pentylamino)acetyl]amino]-2-naphthacenecarboxamide monohydrochloride]
MIC (E. coli #311 (MP)): 0.5 µg/mL
MIC (S. aureus NEMC 8769): 0.12 µg/mL
MIC [1]: 2 µg/mL
MIC (E. coli J3272 Tet C): 0.5 µg/mL
MIC [2]: 2 µg/mL
MIC [3]: 0.5 µg/mL
MIC [4]: 0.5 µg/mL
MIC (E. coli UBMS 88-1 Tet B): 1 µg/mL
MIC (E. coli UBMS 90-4 Tet M; E. coli UBMS 90-4 Tet M): 0.5 µg/mL
MIC (S. aureus IVES 1983): 2 µg/mL
MIC (E. coli J3272 Tet D): 0.5 µg/mL
MIC (E. coli UBMS 90-5): 0.5 µg/mL
MIC ([6]; S. aureus UBMS 90-1 Tet M): 0.5 µg/mL
MIC (S. aureus ROSE (MP); read-out: MIC): 8 µg/mL
MIC (E. coli ATCC 25922): 0.5 µg/mL
MIC (S. aureus IVES 2943): 2 µg/mL
MIC (E. coli J2175): 0.5 µg/mL
MIC (S. marcescens FPOR 8733; read-out: MIC): 4 µg/mL
MIC (S. aureus ATCC 29213; read-out: MIC): 0.5 µg/mL
MIC (E. coli PRP1 Tet A): 0.5 µg/mL
MIC ([7]; S. aureus UBMS 88-5 Tet M): 0.5 µg/mL
MIC [8]: 1 µg/mL
MIC [9]: 32 µg/mL

Source: patent US5567692A, “9-[(substituted glycyl) amido)]-6-demethyl-6-deoxytetracyclines” (priority 1995, dated 1996)
